# Assay results published in article PMC4494927, “Discovery of a small molecule targeting SET-PP2A interaction to overcome BCR-ABLT315I mutation of chronic myeloid leukemia” (Oncotarget, 2015).
# Key:
# Test in all cases: In vitro kinase assay (Kinase-Glo / ADP-Glo)
# Format in all cases: biochemical
# AMPK (A1/B1/G1) = AMPK (A1/B1/G1) (Homo sapiens, UniProt Q13131); details: TGI1002 1 µM; means of two independent experiments; read-out: Inhibitory effect (%)
# Description: (§1) All kinase reactions were carried out in 384-well plates. After addition of the compounds, kinase and ATP-substrate were added to the assay plates successively, the assay plates were centrifuged at 1,000 x g for 1 min and incubated for 1 h at 30 °C. Then, Kinase-Glo Plus or ADP-Glo reagent was added to each well. In Kinase-Glo assay, after addition of the reagent for 20 min, the luminescence was measured on an EnVision Multilabel Plate Reader (Perkin-Elmer). In ADP-Glo assay, after addition of the reagent for 40 min, Kinase Detection Reagent was added and incubated for another 30 min at 27 °C, and then the luminescence was measured. Kinase inhibition rates were calculated per manufacturer's instructions.
# AMPK (A2/B1/G1) = AMPK (A2/B1/G1) (Homo sapiens, UniProt P54646); details: TGI1002 1 µM; means of two independent experiments; read-out: Inhibitory effect (%)
# Description: as §1
# AXL = AXL (Homo sapiens, UniProt P30530); details: TGI1002 1 µM; means of two independent experiments; read-out: Inhibitory effect (%)
# Description: as §1
# Aurora A = Aurora A (Homo sapiens, UniProt O14965); details: TGI1002 1 µM; means of two independent experiments; read-out: Inhibitory effect (%)
# Description: as §1
# Aurora B = Aurora B (Homo sapiens, UniProt Q96GD4); details: TGI1002 1 µM; means of two independent experiments; read-out: Inhibitory effect (%)
# Description: as §1
# BLK = BLK (Homo sapiens, UniProt P51451); details: TGI1002 1 µM; means of two independent experiments; read-out: Inhibitory effect (%)
# Description: as §1
# BRAF = BRAF (Homo sapiens, UniProt P15056); details: TGI1002 1 µM; means of two independent experiments; read-out: Inhibitory effect (%)
# Description: as §1
# BRAF(v599E) = BRAF(v599E) (Homo sapiens, UniProt P15056, V600E); details: TGI1002 1 µM; means of two independent experiments; read-out: Inhibitory effect (%)
# Description: as §1
# CDK1/CyclinA2 = CDK1/CyclinA2 (Homo sapiens, UniProt P06493); details: TGI1002 1 µM; means of two independent experiments; read-out: Inhibitory effect (%)
# Description: as §1
# CDK2/CyclinA2 = CDK2/CyclinA2 (Homo sapiens, UniProt P24941); details: TGI1002 1 µM; means of two independent experiments; read-out: Inhibitory effect (%)
# Description: as §1
# CDK4/CyclinD1 = CDK4/CyclinD1 (Homo sapiens, UniProt P11802); details: TGI1002 1 µM; means of two independent experiments; read-out: Inhibitory effect (%)
# Description: as §1
# EGFR = EGFR (Homo sapiens, UniProt P00533); details: TGI1002 1 µM; means of two independent experiments; read-out: Inhibitory effect (%)
# Description: as §1
# EGFR(T790M,L858R) = EGFR(T790M,L858R) (Homo sapiens, UniProt P00533, L858R/T790M); details: TGI1002 1 µM; means of two independent experiments; read-out: Inhibitory effect (%)
# Description: as §1
# ERK1 = ERK1 (Homo sapiens, UniProt P27361); details: TGI1002 1 µM; means of two independent experiments; read-out: Inhibitory effect (%)
# Description: as §1
# FGFR1 = FGFR1 (Homo sapiens, UniProt P11362); details: TGI1002 1 µM; means of two independent experiments; read-out: Inhibitory effect (%)
# Description: as §1
# FLT1(VEGFR1) = FLT1(VEGFR1) (Homo sapiens, UniProt P17948); details: TGI1002 1 µM; means of two independent experiments; read-out: Inhibitory effect (%)
# Description: as §1
# FLT3 = FLT3 (Homo sapiens, UniProt P36888); details: TGI1002 1 µM; means of two independent experiments; read-out: Inhibitory effect (%)
# Sequence of FLT3 (P36888 27-993): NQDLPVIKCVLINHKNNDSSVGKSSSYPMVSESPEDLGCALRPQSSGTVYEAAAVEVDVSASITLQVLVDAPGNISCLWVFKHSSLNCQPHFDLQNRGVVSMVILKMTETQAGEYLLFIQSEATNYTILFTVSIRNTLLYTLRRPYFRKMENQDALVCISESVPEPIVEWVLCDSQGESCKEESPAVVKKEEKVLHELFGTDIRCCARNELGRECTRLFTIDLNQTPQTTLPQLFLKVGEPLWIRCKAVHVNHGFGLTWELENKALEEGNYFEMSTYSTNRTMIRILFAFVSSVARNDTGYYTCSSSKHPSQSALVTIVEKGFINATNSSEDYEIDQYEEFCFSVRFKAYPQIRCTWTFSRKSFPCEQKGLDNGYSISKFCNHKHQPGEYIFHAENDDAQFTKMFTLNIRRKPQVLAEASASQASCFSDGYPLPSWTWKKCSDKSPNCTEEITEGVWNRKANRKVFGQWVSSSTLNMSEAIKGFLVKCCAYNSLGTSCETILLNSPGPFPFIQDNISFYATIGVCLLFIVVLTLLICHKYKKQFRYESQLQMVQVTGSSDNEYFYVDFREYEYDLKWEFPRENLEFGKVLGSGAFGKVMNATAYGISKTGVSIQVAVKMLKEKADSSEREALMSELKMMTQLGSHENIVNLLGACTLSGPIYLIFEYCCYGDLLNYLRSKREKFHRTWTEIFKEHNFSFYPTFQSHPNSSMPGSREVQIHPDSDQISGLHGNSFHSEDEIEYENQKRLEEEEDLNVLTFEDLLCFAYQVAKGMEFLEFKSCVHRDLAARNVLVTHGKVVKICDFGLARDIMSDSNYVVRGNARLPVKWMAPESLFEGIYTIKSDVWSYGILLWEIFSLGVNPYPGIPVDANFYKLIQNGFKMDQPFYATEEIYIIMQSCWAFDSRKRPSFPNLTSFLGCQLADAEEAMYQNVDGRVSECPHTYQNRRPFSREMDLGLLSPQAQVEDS
# Description: as §1
# GSK3α = GSK3α (Homo sapiens, UniProt P49840); details: TGI1002 1 µM; means of two independent experiments; read-out: Inhibitory effect (%)
# Sequence of GSK3α (P49840 whole entry): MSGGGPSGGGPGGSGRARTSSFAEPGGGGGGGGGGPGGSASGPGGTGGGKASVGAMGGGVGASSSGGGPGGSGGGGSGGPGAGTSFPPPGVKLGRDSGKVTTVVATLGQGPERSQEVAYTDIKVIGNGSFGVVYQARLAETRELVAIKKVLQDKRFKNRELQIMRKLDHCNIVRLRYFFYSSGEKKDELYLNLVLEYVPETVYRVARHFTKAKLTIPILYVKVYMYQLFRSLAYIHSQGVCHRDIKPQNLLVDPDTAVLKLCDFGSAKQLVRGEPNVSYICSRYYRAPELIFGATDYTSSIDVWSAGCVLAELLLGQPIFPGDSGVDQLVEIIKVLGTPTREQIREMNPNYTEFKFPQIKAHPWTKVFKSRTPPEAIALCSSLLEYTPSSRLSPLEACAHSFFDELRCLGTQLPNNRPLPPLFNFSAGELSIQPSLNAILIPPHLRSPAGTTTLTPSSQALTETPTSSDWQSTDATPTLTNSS
# Description: as §1
# HER2 = HER2 (Homo sapiens, UniProt P04626); details: TGI1002 1 µM; means of two independent experiments; read-out: Inhibitory effect (%)
# Description: as §1
# IGF1R = IGF1R (Homo sapiens, UniProt P08069); details: TGI1002 1 µM; means of two independent experiments; read-out: Inhibitory effect (%)
# Description: as §1
# InsR = InsR (Homo sapiens, UniProt P06213); details: TGI1002 1 µM; means of two independent experiments; read-out: Inhibitory effect (%)
# Description: as §1
# JNK1 = JNK1 (Homo sapiens, UniProt P45983); details: TGI1002 1 µM; means of two independent experiments; read-out: Inhibitory effect (%)
# Description: as §1
# KDR = KDR (Homo sapiens, UniProt P35968); details: TGI1002 1 µM; means of two independent experiments; read-out: Inhibitory effect (%)
# Description: as §1
# PDGFRα = PDGFRα (Homo sapiens, UniProt P16234)
# Sequence of PDGFRα (P16234 24-1089, species assumed): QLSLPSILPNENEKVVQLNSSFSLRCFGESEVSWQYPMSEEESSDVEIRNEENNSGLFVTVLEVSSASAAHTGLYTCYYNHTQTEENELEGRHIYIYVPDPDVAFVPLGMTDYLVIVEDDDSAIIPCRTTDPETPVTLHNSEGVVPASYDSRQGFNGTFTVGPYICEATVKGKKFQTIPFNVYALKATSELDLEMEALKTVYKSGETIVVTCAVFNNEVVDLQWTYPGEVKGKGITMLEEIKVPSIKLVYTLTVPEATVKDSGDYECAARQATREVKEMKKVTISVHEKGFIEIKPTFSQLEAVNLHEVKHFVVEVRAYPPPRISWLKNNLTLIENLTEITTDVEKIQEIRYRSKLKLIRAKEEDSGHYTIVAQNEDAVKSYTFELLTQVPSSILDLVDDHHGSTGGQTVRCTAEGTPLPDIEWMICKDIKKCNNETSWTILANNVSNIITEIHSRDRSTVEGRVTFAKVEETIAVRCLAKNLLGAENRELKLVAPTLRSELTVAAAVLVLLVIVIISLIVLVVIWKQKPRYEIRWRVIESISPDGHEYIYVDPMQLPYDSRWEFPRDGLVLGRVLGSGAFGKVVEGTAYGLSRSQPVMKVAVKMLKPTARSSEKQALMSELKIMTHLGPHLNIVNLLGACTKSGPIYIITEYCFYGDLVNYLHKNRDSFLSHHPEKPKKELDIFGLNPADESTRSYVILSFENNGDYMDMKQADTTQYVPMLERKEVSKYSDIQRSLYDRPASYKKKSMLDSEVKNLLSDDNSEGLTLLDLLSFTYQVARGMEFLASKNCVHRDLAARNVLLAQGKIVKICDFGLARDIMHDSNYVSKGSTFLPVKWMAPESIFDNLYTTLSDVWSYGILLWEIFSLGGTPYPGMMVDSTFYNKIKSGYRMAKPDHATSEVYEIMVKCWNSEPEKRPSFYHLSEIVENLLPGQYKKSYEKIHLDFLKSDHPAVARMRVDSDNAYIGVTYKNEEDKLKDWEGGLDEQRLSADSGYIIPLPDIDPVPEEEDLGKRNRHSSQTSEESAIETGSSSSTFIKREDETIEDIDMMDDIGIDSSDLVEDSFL
# Description: as §1
# PI3Kα = PI3Kα (Homo sapiens, UniProt P42336); details: TGI1002 1 µM; means of two independent experiments; read-out: Inhibitory effect (%)
# Description: as §1
# PI3Kβ = PI3Kβ (Homo sapiens, UniProt P42338); details: TGI1002 1 µM; means of two independent experiments; read-out: Inhibitory effect (%)
# Sequence of PI3Kβ (P42338 whole entry): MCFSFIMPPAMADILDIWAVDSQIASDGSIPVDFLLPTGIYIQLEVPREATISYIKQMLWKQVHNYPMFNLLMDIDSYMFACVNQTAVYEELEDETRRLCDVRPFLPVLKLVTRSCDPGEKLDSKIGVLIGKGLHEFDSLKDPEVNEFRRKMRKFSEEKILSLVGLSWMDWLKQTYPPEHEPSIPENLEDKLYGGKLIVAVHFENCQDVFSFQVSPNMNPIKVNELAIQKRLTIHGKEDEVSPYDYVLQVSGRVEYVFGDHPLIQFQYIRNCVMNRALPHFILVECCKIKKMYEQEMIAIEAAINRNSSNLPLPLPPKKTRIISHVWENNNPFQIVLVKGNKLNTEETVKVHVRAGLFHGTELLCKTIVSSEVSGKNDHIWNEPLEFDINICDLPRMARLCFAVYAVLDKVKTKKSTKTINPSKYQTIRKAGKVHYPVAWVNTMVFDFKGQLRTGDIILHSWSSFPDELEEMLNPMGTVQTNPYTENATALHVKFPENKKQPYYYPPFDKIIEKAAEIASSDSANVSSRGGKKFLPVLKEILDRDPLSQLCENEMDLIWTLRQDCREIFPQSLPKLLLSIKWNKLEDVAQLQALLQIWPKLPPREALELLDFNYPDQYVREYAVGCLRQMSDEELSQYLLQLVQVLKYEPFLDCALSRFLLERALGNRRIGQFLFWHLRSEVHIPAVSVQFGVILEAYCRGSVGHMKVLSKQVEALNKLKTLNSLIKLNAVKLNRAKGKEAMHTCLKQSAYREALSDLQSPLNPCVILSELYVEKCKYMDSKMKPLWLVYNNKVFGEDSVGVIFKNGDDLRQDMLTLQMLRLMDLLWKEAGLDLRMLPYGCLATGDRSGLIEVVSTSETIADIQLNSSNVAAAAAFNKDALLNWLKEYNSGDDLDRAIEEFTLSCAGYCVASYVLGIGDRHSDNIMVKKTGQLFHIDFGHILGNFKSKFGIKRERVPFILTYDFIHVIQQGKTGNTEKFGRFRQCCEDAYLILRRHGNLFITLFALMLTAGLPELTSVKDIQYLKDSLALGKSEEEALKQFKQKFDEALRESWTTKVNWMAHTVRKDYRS
# Sequence of PI3Kβ (P27986 whole entry partner): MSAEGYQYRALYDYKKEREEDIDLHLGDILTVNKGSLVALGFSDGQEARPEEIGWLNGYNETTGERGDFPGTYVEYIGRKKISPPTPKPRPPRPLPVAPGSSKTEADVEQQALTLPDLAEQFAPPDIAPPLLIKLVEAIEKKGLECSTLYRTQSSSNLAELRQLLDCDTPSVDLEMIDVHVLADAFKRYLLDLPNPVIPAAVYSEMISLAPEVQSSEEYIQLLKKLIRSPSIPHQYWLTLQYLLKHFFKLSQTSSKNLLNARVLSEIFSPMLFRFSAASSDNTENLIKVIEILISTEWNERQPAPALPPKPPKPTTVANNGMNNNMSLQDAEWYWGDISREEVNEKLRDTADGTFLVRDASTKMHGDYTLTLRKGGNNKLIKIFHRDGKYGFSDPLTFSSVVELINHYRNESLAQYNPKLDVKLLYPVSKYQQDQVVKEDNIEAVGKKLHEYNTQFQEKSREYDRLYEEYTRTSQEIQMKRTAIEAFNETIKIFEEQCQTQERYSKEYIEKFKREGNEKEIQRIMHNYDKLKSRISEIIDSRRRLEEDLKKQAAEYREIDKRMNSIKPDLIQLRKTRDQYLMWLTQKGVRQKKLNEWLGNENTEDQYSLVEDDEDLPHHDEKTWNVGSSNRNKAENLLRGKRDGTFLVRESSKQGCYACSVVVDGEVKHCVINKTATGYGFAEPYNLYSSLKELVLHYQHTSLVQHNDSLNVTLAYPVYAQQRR
# Description: as §1
# PI3Kγ = PI3Kγ (Homo sapiens, UniProt P48736); details: TGI1002 1 µM; means of two independent experiments; read-out: Inhibitory effect (%)
# Description: as §1
# PKAcβ = PKAcβ (Homo sapiens, UniProt P22694); details: TGI1002 1 µM; means of two independent experiments; read-out: Inhibitory effect (%)
# Description: as §1
# PKCα = PKCα (Homo sapiens, UniProt P17252); details: TGI1002 1 µM; means of two independent experiments; read-out: Inhibitory effect (%)
# Description: as §1
# PKCγ = PKCγ (Homo sapiens, UniProt P05129); details: TGI1002 1 µM; means of two independent experiments; read-out: Inhibitory effect (%)
# Description: as §1
# PLK2 = PLK2 (Homo sapiens, UniProt Q9NYY3); details: TGI1002 1 µM; means of two independent experiments; read-out: Inhibitory effect (%)
# Description: as §1
# PLK3 = PLK3 (Homo sapiens, UniProt Q9H4B4); details: TGI1002 1 µM; means of two independent experiments; read-out: Inhibitory effect (%)
# Description: as §1
# RAF1 = RAF1 (Homo sapiens, UniProt P04049); details: TGI1002 1 µM; means of two independent experiments; read-out: Inhibitory effect (%)
# Description: as §1
# RET = RET (Homo sapiens, UniProt P07949); details: TGI1002 1 µM; means of two independent experiments; read-out: Inhibitory effect (%)
# Description: as §1
# RON = RON (Homo sapiens, UniProt Q04912); details: TGI1002 1 µM; means of two independent experiments; read-out: Inhibitory effect (%)
# Description: as §1
# SRC = SRC (Homo sapiens, UniProt P12931); details: TGI1002 1 µM; means of two independent experiments; read-out: Inhibitory effect (%)
# Description: as §1
# TrkB = TrkB (Homo sapiens, UniProt Q16620); details: TGI1002 1 µM; means of two independent experiments; read-out: Inhibitory effect (%)
# Sequence of TrkB (Q16620 32-822): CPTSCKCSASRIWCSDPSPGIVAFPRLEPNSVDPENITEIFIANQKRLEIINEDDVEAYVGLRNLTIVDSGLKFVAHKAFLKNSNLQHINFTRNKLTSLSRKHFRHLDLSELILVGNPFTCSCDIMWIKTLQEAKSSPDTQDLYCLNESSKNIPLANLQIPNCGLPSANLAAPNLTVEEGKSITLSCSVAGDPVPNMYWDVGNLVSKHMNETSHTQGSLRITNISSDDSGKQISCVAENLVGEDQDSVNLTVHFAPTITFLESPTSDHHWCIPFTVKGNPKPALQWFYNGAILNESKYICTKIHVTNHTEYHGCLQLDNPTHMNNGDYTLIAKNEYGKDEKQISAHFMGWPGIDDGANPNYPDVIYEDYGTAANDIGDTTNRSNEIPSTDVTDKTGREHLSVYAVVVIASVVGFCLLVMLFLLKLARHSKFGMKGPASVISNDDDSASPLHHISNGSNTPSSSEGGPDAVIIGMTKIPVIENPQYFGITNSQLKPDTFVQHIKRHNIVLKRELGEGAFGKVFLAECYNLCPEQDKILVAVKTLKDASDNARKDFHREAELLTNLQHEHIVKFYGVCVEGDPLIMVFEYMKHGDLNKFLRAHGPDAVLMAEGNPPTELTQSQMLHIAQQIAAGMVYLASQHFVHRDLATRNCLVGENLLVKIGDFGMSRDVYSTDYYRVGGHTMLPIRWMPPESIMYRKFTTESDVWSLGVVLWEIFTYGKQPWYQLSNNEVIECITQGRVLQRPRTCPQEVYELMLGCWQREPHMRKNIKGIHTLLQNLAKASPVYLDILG
# Description: as §1
# c-KIT(V654A) = c-KIT(V654A) (Homo sapiens, UniProt P10721, V654A); details: TGI1002 1 µM; means of two independent experiments; read-out: Inhibitory effect (%)
# Description: as §1
# p38α = p38α (Homo sapiens, UniProt Q16539); details: TGI1002 1 µM; means of two independent experiments; read-out: Inhibitory effect (%)
# Description: as §1
compound,measurement,setting,value
"Cc1ccc(NC(=O)c2cccc(CN3CCN(C)CC3)c2)cc1Oc1nccc(-c2cccnc2)n1.Cl [TGI1002, N-(4-methyl-3-((4-(pyridin-3-yl)-pyrimidin-2-yl)oxy)phenyl)-3-((4-methylpiperazin-1-yl)methyl)benzamide hydrochloride]",inhibition at 1 µM,AMPK (A1/B1/G1),0.19%
same,inhibition at 1 µM,AMPK (A2/B1/G1),2.57%
same,inhibition at 1 µM,AXL,3.03%
same,inhibition at 1 µM,Aurora A,24.6%
same,inhibition at 1 µM,Aurora B,0%
same,inhibition at 1 µM,BLK,3.39%
same,inhibition at 1 µM,BRAF,2.3%
same,inhibition at 1 µM,BRAF(v599E),3.61%
same,inhibition at 1 µM,CDK1/CyclinA2,5.27%
same,inhibition at 1 µM,CDK2/CyclinA2,1.54%
same,inhibition at 1 µM,CDK4/CyclinD1,7.54%
same,inhibition at 1 µM,EGFR,0%
same,inhibition at 1 µM,"EGFR(T790M,L858R)",8.74%
same,inhibition at 1 µM,ERK1,0.01%
same,inhibition at 1 µM,FGFR1,9.71%
same,inhibition at 1 µM,FLT1(VEGFR1),1.97%
same,inhibition at 1 µM,FLT3,2.97%
same,inhibition at 1 µM,GSK3α,2.6%
same,inhibition at 1 µM,HER2,7.88%
same,inhibition at 1 µM,IGF1R,8.65%
same,inhibition at 1 µM,InsR,3.7%
same,inhibition at 1 µM,JNK1,0.2%
same,inhibition at 1 µM,KDR,0.64%
same,IC50,PDGFRα; PDGFRα kinase activity,3.28 µM
same,inhibition at 1 µM,"PDGFRα; TGI1002 1 µM, means of two independent experiments, read-out: Inhibitory effect (%)",43.5%
same,inhibition at 1 µM,PI3Kα,2.66%
same,inhibition at 1 µM,PI3Kβ,0%
same,inhibition at 1 µM,PI3Kγ,2.65%
same,inhibition at 1 µM,PKAcβ,6.5%
same,inhibition at 1 µM,PKCα,5.57%
same,inhibition at 1 µM,PKCγ,0.79%
same,inhibition at 1 µM,PLK2,3.52%
same,inhibition at 1 µM,PLK3,4.71%
same,inhibition at 1 µM,RAF1,5.37%
same,inhibition at 1 µM,RET,12.2%
same,inhibition at 1 µM,RON,0.14%
same,inhibition at 1 µM,SRC,1.09%
same,inhibition at 1 µM,TrkB,5.58%
same,inhibition at 1 µM,c-KIT(V654A),11.7%
same,inhibition at 1 µM,p38α,2.17%
